Assay results as given in US6838237B2, “Antigenically reactive regions of the hepatitis a virus polyprotein” (The United States of America as represented by the …, priority 1996, dated 2005).

Key:
anti-HAV-positive sera = experiment: EIA for anti-HAV: synthetic peptides adsorbed to wells, reacted with anti-HAV-positive acute sera; type: binding, human; conditions: for Reactivity with acute sera (reactive/tested): experiment 1: sera 1:100, anti-human IgG-HRP, cutoff P/N 3.0; for Reactivity with acute sera (percent of sera reactive): experiment 1: sera 1:100, cutoff P/N 3.0; for P/N for acute sera (mean) / P/N for acute sera (range, in parentheses): experiment 1, OD493 positive/negative ratio of reactive sera
Procedure, shortened: (§1)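 Peptides at 10 mg/ml in 0.1 M PBS pH 7.5 adsorbed to wells 12 h at room temperature; sera diluted in PBS-Tween with 10% goat serum, incubated 60 min at 37 °C. Readout OD493 as P/N ratio, cutoff 3.0 (negative mean plus ≥3.5 SD).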

anti-HAV-negative sera = experiment: EIA for anti-HAV: synthetic peptides reacted with anti-HAV-negative sera; type: binding, human; conditions: experiment 1: sera 1:100, cutoff P/N 3.0
Procedure, shortened: as §1

Q: RMYWGPAISYFHLNPGFHTG [YK-1414] was tested. Which “Reactivity with acute sera (reactive/tested)” value (anti-HAV-positive sera) did it give?
A: 1/41

Q: What about the “Reactivity with acute sera (percent of sera reactive)” value (anti-HAV-positive sera) of the same sequence?
A: 2.4%

Q: What about the “P/N for acute sera (mean)” value (anti-HAV-positive sera) of the same sequence?
A: 3.35

Q: What about the “Reactivity with negative sera (reactive/tested)” value (anti-HAV-negative sera) of the same sequence?
A: 0/27

Q: Which “Reactivity with acute sera (reactive/tested)” value (anti-HAV-positive sera) does the source give for VLPPPRKMKGLFSQAKISLF [YK-1318] here?
A: 15/48

Q: And the “Reactivity with acute sera (percent of sera reactive)” value (anti-HAV-positive sera)?
A: 31.3%

Q: What about the “P/N for acute sera (mean)” value (anti-HAV-positive sera) of the same sequence?
A: 5.94

Q: And the “P/N for acute sera (range, in parentheses)” value (anti-HAV-positive sera)?
A: (3.4-8.68)

Q: What about the “Reactivity with negative sera (reactive/tested)” value (anti-HAV-negative sera) of the same sequence?
A: 0/51

Q: For SHIECRKPYKELRLEVGKQR [YK-1315], which “Reactivity with acute sera (reactive/tested)” value (anti-HAV-positive sera) is on record?
A: 26/48

Q: And the “Reactivity with acute sera (percent of sera reactive)” value (anti-HAV-positive sera)?
A: 54.2%

Q: What about the “P/N for acute sera (mean)” value (anti-HAV-positive sera) of the same sequence?
A: 13.71

Q: What about the “P/N for acute sera (range, in parentheses)” value (anti-HAV-positive sera) of the same sequence?
A: (3.1-75.61)

Q: And the “Reactivity with negative sera (reactive/tested)” value (anti-HAV-negative sera)?
A: 1/51

Q: What does the source list for SLIAWQRSNAEFEQNLENAQ [YK-1435]?
A: Reactivity with acute sera (reactive/tested) (anti-HAV-positive sera): 6/41; Reactivity with acute sera (percent of sera reactive) (anti-HAV-positive sera): 14.6%; P/N for acute sera (mean) (anti-HAV-positive sera): 8.96; P/N for acute sera (range, in parentheses) (anti-HAV-positive sera): (5.16-13.71); Reactivity with negative sera (reactive/tested) (anti-HAV-negative sera): 1/27

Q: How did the “Reactivity with acute sera (reactive/tested)” value (anti-HAV-positive sera) turn out when FTQCSMNVVSKTLFRKSPIY [YK-1395] was run?
A: 8/41

Q: And the “Reactivity with acute sera (percent of sera reactive)” value (anti-HAV-positive sera)?
A: 19.5%

Q: And the “P/N for acute sera (mean)” value (anti-HAV-positive sera)?
A: 6.52

Q: What about the “P/N for acute sera (range, in parentheses)” value (anti-HAV-positive sera) of the same sequence?
A: (3.51-17.52)

Q: What about the “Reactivity with negative sera (reactive/tested)” value (anti-HAV-negative sera) of the same sequence?
A: 1/27

Q: Which results are given for AKKVPETFPELKPGESRHTS [YK-1273]?
A: immunoreactivity with anti-HAV-positive sera (in words) (anti-HAV-positive sera): broad and strong antigenic reactivity; Reactivity with acute sera (reactive/tested) (anti-HAV-positive sera): 19/46; Reactivity with acute sera (percent of sera reactive) (anti-HAV-positive sera): 41.3%; P/N for acute sera (mean) (anti-HAV-positive sera): 5.15; P/N for acute sera (range, in parentheses) (anti-HAV-positive sera): (3.15-8.58); Reactivity with negative sera (reactive/tested) (anti-HAV-negative sera): 3/48

Q: With PQLKPVSELTFLKRSFNLVE [YK-1431] as the sequence, how does the “Reactivity with acute sera (reactive/tested)” value (anti-HAV-positive sera) read?
A: 4/41

Q: And the “Reactivity with acute sera (percent of sera reactive)” value (anti-HAV-positive sera)?
A: 9.8%

Q: What about the “P/N for acute sera (mean)” value (anti-HAV-positive sera) of the same sequence?
A: 14.13

Q: What about the “P/N for acute sera (range, in parentheses)” value (anti-HAV-positive sera) of the same sequence?
A: (3.17-27.53)

Q: And the “Reactivity with negative sera (reactive/tested)” value (anti-HAV-negative sera)?
A: 1/27

Q: For GLDHILSLADIEEEQMIQSV [YK-1206], which “Reactivity with acute sera (reactive/tested)” value (anti-HAV-positive sera) is on record?
A: 8/42

Q: And the “Reactivity with acute sera (percent of sera reactive)” value (anti-HAV-positive sera)?
A: 19.1%

Q: What about the “P/N for acute sera (mean)” value (anti-HAV-positive sera) of the same sequence?
A: 9.46

Q: What about the “P/N for acute sera (range, in parentheses)” value (anti-HAV-positive sera) of the same sequence?
A: (3.01-27.07)

Q: What about the “Reactivity with negative sera (reactive/tested)” value (anti-HAV-negative sera) of the same sequence?
A: 0/46

Q: Which results are given for VKEAIDRRLHFKVEVKPASF [YK-1361]?
A: Reactivity with acute sera (reactive/tested) (anti-HAV-positive sera): 5/41; Reactivity with acute sera (percent of sera reactive) (anti-HAV-positive sera): 12.2%; P/N for acute sera (mean) (anti-HAV-positive sera): 4.12; P/N for acute sera (range, in parentheses) (anti-HAV-positive sera): (3.21-6.28); Reactivity with negative sera (reactive/tested) (anti-HAV-negative sera): 0/46

Q: For FQSFPSGEPSNSKLSGFFQS [YK-1370], which “Reactivity with acute sera (reactive/tested)” value (anti-HAV-positive sera) is on record?
A: 10/41

Q: And the “Reactivity with acute sera (percent of sera reactive)” value (anti-HAV-positive sera)?
A: 24.4%

Q: What about the “P/N for acute sera (mean)” value (anti-HAV-positive sera) of the same sequence?
A: 8.05

Q: And the “P/N for acute sera (range, in parentheses)” value (anti-HAV-positive sera)?
A: (3.05-18.48)

Q: And the “Reactivity with negative sera (reactive/tested)” value (anti-HAV-negative sera)?
A: 1/27

Q: What does the source list for DRTAVTGASYFTSVDQSSVH [YK-1208]?
A: Reactivity with acute sera (reactive/tested) (anti-HAV-positive sera): 5/41; Reactivity with acute sera (percent of sera reactive) (anti-HAV-positive sera): 12.2%; P/N for acute sera (mean) (anti-HAV-positive sera): 4.29; P/N for acute sera (range, in parentheses) (anti-HAV-positive sera): (3.27-5.54); Reactivity with negative sera (reactive/tested) (anti-HAV-negative sera): 0/46

Q: Which results are given for DLDFSAFDASLSPFMIREAG [YK-1419]?
A: Reactivity with acute sera (reactive/tested) (anti-HAV-positive sera): 5/41; Reactivity with acute sera (percent of sera reactive) (anti-HAV-positive sera): 12.2%; P/N for acute sera (mean) (anti-HAV-positive sera): 5.27; P/N for acute sera (range, in parentheses) (anti-HAV-positive sera): (3.98-8.49); Reactivity with negative sera (reactive/tested) (anti-HAV-negative sera): 1/27
